From patent US20260042731A1, “(2,4-DICHLOROPHENOXY)ACETIC ACID ANALOGS” (CORTEVA AGRISCIENCE LLC, priority 2022, published 2026)

Key:
[1] = system: Chenopodium album (CHEAL), common lambsquarters; test: Postemergence herbicide evaluation, growth of Chenopodium album (CHEAL); type: in vivo
[2] = system: weeds ABUTH, AMATA, AMBEL, CHEAL, ERICA; test: Postemergence herbicide evaluation, overall average % weed control (ABUTH, AMATA, AMBEL, CHEAL, ERICA); type: in vivo
[3] = system: Ambrosia artemisiifolia (AMBEL), common ragweed; test: Postemergence herbicide evaluation, growth of Ambrosia artemisiifolia (AMBEL); type: in vivo
[4] = Volatility of compounds measured by thermogravimetric analysis (TGA); type: physicochemical
[5] = system: Amaranthus rudis (AMATA), tall water hemp; test: Postemergence herbicide evaluation, growth of Amaranthus rudis (AMATA); type: in vivo
[6] = system: Abutilon theophrasti (ABUTH), velvetleaf; test: Postemergence herbicide evaluation, growth of Abutilon theophrasti (ABUTH); type: in vivo
[7] = system: glyphosate resistant Conyza canadensis (L.) (ERICA), horseweed; test: Postemergence herbicide evaluation, growth of Conyza canadensis (ERICA); type: in vivo

Q: For `O=C(COc1ccc(Cl)cc1Cl)Oc1cncnc1` [Compound E1], which “Ave. CHEAL, percent reduction in plant size relative to the untreated control” value ([1]; 280 g ae/ha, 7 DAA) is on record?
A: The value was 70%.

Q: What about the “Ave. CHEAL, percent reduction in plant size relative to the untreated control” value ([1]; 280 g ae/ha, 14 DAA) of the same compound?
A: Its value is 73%.

Q: And the “Ave. CHEAL, percent reduction in plant size relative to the untreated control” value ([1]; 280 g ae/ha, 21 DAA)?
A: Its value is 78%.

Q: What about the “Ave. CHEAL, percent reduction in plant size relative to the untreated control” value ([1]; 560 g ae/ha, 7 DAA) of the same compound?
A: Its value is 75%.

Q: What about the “Ave. CHEAL, percent reduction in plant size relative to the untreated control” value ([1]; 560 g ae/ha, 14 DAA) of the same compound?
A: Its value is 90%.

Q: And the “Ave. CHEAL, percent reduction in plant size relative to the untreated control” value ([1]; 560 g ae/ha, 21 DAA)?
A: The value was 87%.

Q: And the “Overall Ave % Weed Control” value ([2]; 280 g ae/ha, 7 DAA)?
A: The value was 75%.

Q: And the “Overall Ave % Weed Control” value ([2]; 280 g ae/ha, 14 DAA)?
A: Its value is 85%.

Q: What about the “Overall Ave % Weed Control” value ([2]; 280 g ae/ha, 21 DAA) of the same compound?
A: The value was 88%.

Q: And the “Overall Ave % Weed Control” value ([2]; 560 g ae/ha, 7 DAA)?
A: Its value is 76%.

Q: What about the “Overall Ave % Weed Control” value ([2]; 560 g ae/ha, 14 DAA) of the same compound?
A: The value was 89%.

Q: And the “Overall Ave % Weed Control” value ([2]; 560 g ae/ha, 21 DAA)?
A: The value was 93%.

Q: And the “AVE. AMBEL, percent reduction in plant size relative to the untreated control” value ([3]; 280 g ae/ha, 7 DAA)?
A: The value was 65%.

Q: What about the “AVE. AMBEL, percent reduction in plant size relative to the untreated control” value ([3]; 280 g ae/ha, 14 DAA) of the same compound?
A: Its value is 96%.

Q: And the “AVE. AMBEL, percent reduction in plant size relative to the untreated control” value ([3]; 280 g ae/ha, 21 DAA)?
A: Its value is 99%.

Q: What about the “AVE. AMBEL, percent reduction in plant size relative to the untreated control” value ([3]; 560 g ae/ha, 7 DAA) of the same compound?
A: Its value is 73%.

Q: And the “AVE. AMBEL, percent reduction in plant size relative to the untreated control” value ([3]; 560 g ae/ha, 14 DAA)?
A: The value was 90%.

Q: What about the “AVE. AMBEL, percent reduction in plant size relative to the untreated control” value ([3]; 560 g ae/ha, 21 DAA) of the same compound?
A: Its value is 97%.

Q: What about the “TGA Data (rate of weight loss, volatility)” value [4] of the same compound?
A: Its value is 0.8 µg/min.

Q: What about the “Ave. AMATA, percent reduction in plant size relative to the untreated control” value ([5]; 280 g ae/ha, 7 DAA) of the same compound?
A: Its value is 78%.

Q: And the “Ave. AMATA, percent reduction in plant size relative to the untreated control” value ([5]; 280 g ae/ha, 14 DAA)?
A: The value was 75%.

Q: And the “Ave. AMATA, percent reduction in plant size relative to the untreated control” value ([5]; 280 g ae/ha, 21 DAA)?
A: The value was 70%.

Q: What about the “Ave. AMATA, percent reduction in plant size relative to the untreated control” value ([5]; 560 g ae/ha, 7 DAA) of the same compound?
A: The value was 73%.

Q: What about the “Ave. AMATA, percent reduction in plant size relative to the untreated control” value ([5]; 560 g ae/ha, 14 DAA) of the same compound?
A: The value was 85%.

Q: And the “Ave. AMATA, percent reduction in plant size relative to the untreated control” value ([5]; 560 g ae/ha, 21 DAA)?
A: The value was 85%.

Q: And the “AVE. ABUTH, percent reduction in plant size relative to the untreated control” value ([6]; 280 g ae/ha, 7 DAA)?
A: The value was 93%.

Q: What about the “AVE. ABUTH, percent reduction in plant size relative to the untreated control” value ([6]; 280 g ae/ha, 14 DAA) of the same compound?
A: Its value is 96%.

Q: What about the “AVE. ABUTH, percent reduction in plant size relative to the untreated control” value ([6]; 280 g ae/ha, 21 DAA) of the same compound?
A: Its value is 100%.

Q: What about the “AVE. ABUTH, percent reduction in plant size relative to the untreated control” value ([6]; 560 g ae/ha, 7 DAA) of the same compound?
A: The value was 85%.

Q: And the “AVE. ABUTH, percent reduction in plant size relative to the untreated control” value ([6]; 560 g ae/ha, 14 DAA)?
A: The value was 97%.

Q: And the “AVE. ABUTH, percent reduction in plant size relative to the untreated control” value ([6]; 560 g ae/ha, 21 DAA)?
A: Its value is 100%.

Q: What about the “Ave. ERICA, percent reduction in plant size relative to the untreated control” value ([7]; 280 g ae/ha, 7 DAA) of the same compound?
A: The value was 68%.

Q: And the “Ave. ERICA, percent reduction in plant size relative to the untreated control” value ([7]; 280 g ae/ha, 14 DAA)?
A: Its value is 85%.

Q: And the “Ave. ERICA, percent reduction in plant size relative to the untreated control” value ([7]; 280 g ae/ha, 21 DAA)?
A: Its value is 95%.

Q: What about the “Ave. ERICA, percent reduction in plant size relative to the untreated control” value ([7]; 560 g ae/ha, 7 DAA) of the same compound?
A: The value was 75%.

Q: And the “Ave. ERICA, percent reduction in plant size relative to the untreated control” value ([7]; 560 g ae/ha, 14 DAA)?
A: The value was 85%.

Q: And the “Ave. ERICA, percent reduction in plant size relative to the untreated control” value ([7]; 560 g ae/ha, 21 DAA)?
A: Its value is 98%.
